The subject of assay [1] is FIV. Conditions: FIV-infected cats, Hartmann et al. 1998; cited from earlier work.
The subject of assay [2] is FeLV. Put plainly: Treatment of cats naturally infected with FeLV. It counts as in vivo, cat.
Assay [3] concerns FIV. Put plainly: Treatment of clinically ill cats naturally infected with FIV. It counts as in vivo, cat. The protocol:
The compounds were dissolved to a concentration ranging between 50 and 250 mg/mL in an appropriate aqueous buffered sodium hydroxide solution close to neutral pH conditions (pH between 6 and 9).
The formulated compounds were administered via the subcutaneous route at least once weekly at total dose rates ranging between 10 and 175 mg/kg per week. Treatment duration was between 1 week and 3 months.
The results of the treatment of cats with specific symptoms are discussed below. • Cats with oral signs. • Oral signs can present themselves as, but are not limited to, stomatitis, gingivitis, faucitis, glossitis, periodontitis, gingivostomatitis, ulcerations of the tonsils and tongue, salivation etc. […] Spontaneous bleeding was no longer observed and the bloody red inflammation diminished to a slightly pinkish observation. No other treatment was given concomitantly. • Cats with high viral load • FIV, as a retrovirus, reverse transcribes its viral RNA genome into proviral DNA which is subsequently inserted into the genome of its host. […] Reduction of viral load is important in controlling FIV infection in the cat. […] The graphs in FIGS. 1A, B and C represent the viral load pre and post treatment with the compounds in three different cats. No other treatment was given concomitantly. • Lethargic and emaciated cat, with severe weight loss • The FIV-positive cat was presented to the veterinarian with the following clinical signs: lethargy, emaciation, difficulty to walk, unable to jump up/off a chair, no desire to go outdoors, prolonged sleeping patterns. Prognosis was to euthanize the cat. • Treatment with the compounds was initiated and within a matter of weeks, the cat returned to normal, gained weight (0.6 kg), walked and played around, stayed outdoors for several consecutive days. […] No other treatment was given concomitantly. • Cat with lymphadenopathy (swollen/enlarged lymph nodes) • A male FIV-positive cat with swollen Lnn. poplitei (score 4; severity is scored on a scale from 0 to 10 with 0 representing a normal clinical picture and 10 being the most severe manifestation) was treated with the compounds. Within two weeks the swelling went down to a score of 2. At the end of the 6-week treatment period with the compounds a score of 1 was noted; 0 representing a normal clinical picture. […] Before treatment the Lnn. poplitei were swollen (score 2). Two weeks into treatment the lymphnodes returned to normal (score 0) which was maintained throughout the 6-week treatment period with the compounds. • Similar observations were made for two FIV-positive cats. When treatment was initiated the Lnn. mandibulares were swollen (score 2 and 3, respectively). The returned to normal (score 0) by the end of the 6-week treatment with the compounds. • Cat with inflammation of the eye • A female FIV-positive cat suffered from chronic inflammation of the eye before treatment with the compounds was initiated despite concurrent antibacterial treatment. […] No other treatment was given concomitantly. One week following treatment the cat was able to sit up straight and eat on its own. Treatment was continued for another four weeks after which the cat was able to walk, climb up and down stairs, and eat on its own. […] The Karnofsky's score has proven its validity in cats to assess and compare the efficacy of antiviral compounds (Hartmann et al., J Acquir Immune Defic Syndr Hum Retrovirol 1998). Table 4 summarizes the Karnofsky's score of two FIV-positive cats before, during and post treatment with the compounds. No other treatment was given concomitantly.

Assay [4] concerns FeLV. The experiment in a line: Inhibition of FeLV replication in CrFK cell culture (p27 ELISA and RT-qPCR). It counts as cell-based. The note with it: CrFK cells, 100 CCID50 FeLV, six days, mean ± SD of three independent assays. The protocol:
The compounds were dissolved in a 0.05 N sodium hydroxide solution at a concentration of 10 mg/ml. Crandell Reese Feline kidney (CrFK) cells were grown in Dulbecco minimum essential medium (DMEM, Life Technologies) containing 1% sodium bicarbonate (Life Technologies) and 5% fetal calf serum (FCS, Biochrom). In a 96-well plate 5000 CrFK cells were seeded and incubated for 24 h at 37° C. in a humid atmosphere containing 5% CO2. Subsequently cells were washed with 100 μl phosphate buffered saline (PBS) containing 50 μg/ml DEAE-dextran and inoculated with 100 CCID50 FeLV in presence of increasing doses of the compounds (0.4; 2; 10 and 50 μg/ml). After 2 h of incubation allowing the virus to enter the cells, the supernatant was removed and the cells were washed with PBS. DMEM including 5% FCS and containing increasing doses of the compounds were added to the infected cells. Infected cells without compounds were included as positive controls (virus control) and uninfected cells were included as negative controls (cell control). The cells were incubated for six days when viral supernatant was collected and analyzed by enzyme-linked immunosorbent assay (ELISA) for FeLV p27 antigen production and real time RT-qPCR for FeLV RNA production. […]
In general terms: An ELISA detects its analyte on a solid surface through an enzyme-linked reagent.

Assay [5] relates to FIV-Ut113. Put plainly: Inhibition of FIV replication in CrFK cells co-infected with FeLV and FIV (p24 ELISA and RT-qPCR). It counts as cell-based. Conditions: CrFK cells co-infected with FeLV and FIV-Ut113, six days; mean ± SD of three independent assays. As for the experimental part: (§1) The compounds were dissolved in a 0.05 N sodium hydroxide solution at a concentration of 10 mg/ml. Reference compounds PMEDAP and PMEA were dissolved in a sodium bicarbonate buffer at a concentration of 10 mg/ml.
(§2) Crandell Reese Feline kidney (CrFK) cells were grown in Dulbecco minimum essential medium (DMEM, Life Technologies) containing 1% sodium bicarbonate (Life Technologies) and 5% fetal calf serum (FCS, Biochrom). In a 96-well plate 5000 CrFK cells were seeded and incubated for 24 h at 37° C. in a humid atmosphere containing 5% CO2. Subsequently cells were washed with 100 μl phosphate buffered saline (PBS) containing 50 μg/ml DEAE-dextran and co-infected with 100 CCID50 FeLV and 100 CCID50 FIV-Ut113 in presence of increasing doses of the compounds (0.4; 2; 10 and 50 μg/ml). After 2 h of incubation allowing the virus to enter the cells, the supernatant was removed and the cells were washed with PBS. […] The cells were incubated for six days when viral supernatant was collected and analyzed by ELISA for FeLV p27 and FIV p24 antigen production and real time RT-qPCR for FeLV and FIV RNA production. […] Subsequently the amount of FIV p24 was detected by a monoclonal biotinylated antibody 5E6D11 followed by a colorimetric reaction which is based on extravidin peroxidase (Sigma) and OPD substrate (Sigma).

Assay [6] has as its system FeLV. The experiment in a line: Inhibition of FeLV replication in CrFK cells co-infected with FeLV and FIV (p27 ELISA and RT-qPCR). It counts as cell-based. The note with it: CrFK cells co-infected with FeLV and FIV-Ut113, six days; mean ± SD of three independent assays. As for the experimental part:
as §1, §2

For assay [7], the system named is FIV and FeLV. Put plainly: Treatment of cats naturally co-infected with FIV and FeLV. It counts as in vivo. The note with it: cat co-infected with FIV and FeLV, pre versus post treatment (FIG. 2); no other treatment. The protocol:
The compounds were dissolved in an appropriate aqueous buffered sodium hydroxide solution (at concentration ranging between 50 and 250 mg/ml and close to neutral pH conditions (pH between 6 and 9). The formulated compounds were administered via the subcutaneous route at least once weekly at total dose rates ranging between 10 and 175 mg/kg per week. Treatment duration was between 1 week and 3 months.
FIV and FeLV, as retroviruses, reverse transcribe their viral RNA genome into proviral DNA which is subsequently inserted into the genome of its host. […] Reduction of viral load is important in controlling FIV/FeLV infection in the cat. […] The graph in FIG. 2 represents the viral load pre and post treatment with the compounds in a cat co-infected with FIV and FeLV. No other treatment was given concomitantly.

Setting [8] is: FIV-positive cat A, 50% before treatment.
Where [9] appears, read: FIV-positive cat B, 30.5% before treatment.

In brackets after ≈: the same amount, converted by molar mass.

The values below come from US20140073607A1, “COMPOUNDS FOR USE IN THE TREATMENT OF FELINE RETROVIRAL INFECTIONS” (OKAPI SCIENCES NV, priority 2011, published 2014).

Turning to `Nc1ncnc2c1ncn2C[C@@H](CF)OCP(=O)(O)O` [FPMPA, (S)-9-(3-fluoro-2-phosphonylmethoxypropyl)adenine], in assay [1], the “Effect on FIV load” value was “reduced the FIV load” and the “Improvement in Karnofsky's score” value is 3.8%.

`Nc1ncnc2c1ncn2CCOCP(=O)(O)O` [PMEA, 9-(2-phosphonylmethoxyethyl)adenine, reference compound]: in assay [1], the “Effect on FIV load” value was “did not decrease the FIV load” and the “Improvement in Karnofsky's score” value is 10%.

Consider `CC(Cn1cnc2c(N)nc(N)nc21)OCP(=O)(O)O` (centres unmarked) [R-PMPDAP, 9-(2-phosphonylmethoxypropyl)-2,6-diaminopurine], for which the “FeLV viral load after treatment” value in assay [2] (female FeLV-positive viremic cat, RT-qPCR, decreased from 15500) is listed as 3200 FeLV virions per mL plasma. For the same compound, in assay [2] (male FeLV-positive cat with clinical signs, 58.5% before treatment), the “Karnofsky's score at the end of the 3-week treatment period” value is listed as 80%. The “FeLV associated clinical signs following treatment” value in assay [2] (male FeLV-positive cat with oral inflammation, lymphadenopathy, diarrhea) is “the clinical signs ameliorated”. In addition, in assay [3] (setting [8]), the “Karnofsky's score, 1 month post cessation of treatment” value is listed as 90%; the “Karnofsky's score, during treatment” value is listed as 70%; the “Karnofsky's score, end of treatment” value was 90%. In addition, in assay [3] (setting [9]), the “Karnofsky's score, 1 month post cessation of treatment” value is listed as 35%; the “Karnofsky's score, during treatment” value was 50%; the “Karnofsky's score, end of treatment” value was found to be 50%. Also, the Stomatitis upon treatment entry in assay [3] (FIV-positive cat with severe caudal stomatitis and buccostomatitis, subcutaneous, 10-175 mg/kg per week, no other treatment) is recorded as “the stomatitis decreased significantly”. Moreover, the Gingivitis upon treatment result in assay [3] (FIV-positive cat with severe gingivitis with spontaneous bleeding, subcutaneous, no other treatment) is reported as “the gingivitis decreased significantly”. In assay [3] (FIV-positive cats, pre versus post treatment, three cats (FIG. 1A, B, C)), the “Viral load (FIV virions per mL plasma)” value is recorded as “significantly reduce the viral load”. For the same compound, in assay [3] (female FIV-positive cat, concurrent antibacterial treatment), the “Chronic inflammation of the eye following treatment” value is “on its way to full recovery”. In addition, in assay [3] (female FIV-positive cat, score 2 before treatment, scale 0 to 10, two weeks into treatment, maintained throughout 6 weeks), the “Swelling score of Lnn. poplitei” value is 0. Besides, the Weight gained in assay [3] (lethargic, emaciated FIV-positive cat with severe weight loss, within a matter of weeks) is recorded as 0.6 kg. For the same compound, the General condition entry in assay [3] (lethargic, emaciated FIV-positive cat, prognosis was to euthanize, within a matter of weeks) was “general condition returned to normal”. In assay [3] (male FIV-positive cat, score 4 before treatment, scale 0 to 10, end of the 6-week treatment period), the “Swelling score of Lnn. poplitei” value is 1. For the same compound, in assay [3] (male FIV-positive cat, score 4 before treatment, scale 0 to 10, within two weeks), the “Swelling score of Lnn. poplitei” value was determined as 2. The “Neurological symptoms (acute paresis of left front and hind legs)” value in assay [3] (male FIV-positive cat, shortly after five weeks of treatment, no other treatment) is “A full recovery was observed”. For the same compound, in assay [3] (male FIV-positive cat, within two weeks), the “Feces (chronic daily diarrhea)” value is listed as “returned to normal within two weeks”. The “Swelling score of Lnn. mandibulares” value in assay [3] (two FIV-positive cats, score 2 and 3 at start, scale 0 to 10, end of the 6-week treatment) is 0. Further, the “EC50 of FeLV replication, RT-qPCR” value in assay [4] (FeLV RNA in supernatant) is 0.039 ± 0.024 µg/mL. In assay [4] (p27 antigen in supernatant), the “EC50 of FeLV replication, p27 ELISA” value was 0.030 ± 0.006 µg/mL. In assay [5], the “EC50 FIV ELISA (p24)” value stood at 0.332 ± 0.035 µg/mL (≈ 1.1 µM) and the “EC50 FIV RT-qPCR” value amounted to 0.258 ± 0.024 µg/mL (≈ 0.854 µM). In addition, in assay [6], the “EC50 FeLV ELISA (p27)” value came to 0.062 ± 0.010 µg/mL (≈ 0.205 µM) and the “EC50 FeLV RT-qPCR” value worked out at 0.095 ± 0.050 µg/mL (≈ 0.314 µM). In assay [7], the “Viral load (FIV/FeLV virions per mL plasma)” value is on record as “significantly reduce the viral load”.
